Laboratory results published in PubChem BioAssay (NCI).
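GI50 = concentration required for 50% inhibition of growth. TGI: total growth inhibition.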

Assays:
Assay in all cases: growth of human tumour cells (NCI), 384-well format
KM12 colon = test system: KM12 colon
SF-539 CNS = test system: SF-539 CNS
HOP-62 NSCLC = test system: HOP-62 NSCLC
CCRF-CEM leukemia = test system: CCRF-CEM leukemia
SK-OV-3 ovarian = test system: SK-OV-3 ovarian
ACHN renal = test system: ACHN renal
SN12C renal = test system: SN12C renal
HOP-92 NSCLC = test system: HOP-92 NSCLC
NCI-H460 NSCLC = test system: NCI-H460 NSCLC
SF-268 CNS = test system: SF-268 CNS
MOLT-4 leukemia = test system: MOLT-4 leukemia
M14 melanoma = test system: M14 melanoma
MDA-MB-468 breast = test system: MDA-MB-468 breast
TK-10 renal = test system: TK-10 renal
PC-3 prostate = test system: PC-3 prostate
NCI/ADR-RES ovarian = test system: NCI/ADR-RES ovarian
UACC-62 melanoma = test system: UACC-62 melanoma
SNB-75 CNS = test system: SNB-75 CNS
HCT-15 colon = test system: HCT-15 colon
UACC-257 melanoma = test system: UACC-257 melanoma
MDA-MB-435 melanoma = test system: MDA-MB-435 melanoma
HT29 colon = test system: HT29 colon
A549 NSCLC = test system: A549 NSCLC
SK-MEL-2 melanoma = test system: SK-MEL-2 melanoma
NCI-H23 lung = test system: NCI-H23 lung
HCC-2998 colon = test system: HCC-2998 colon
OVCAR-8 ovarian = test system: OVCAR-8 ovarian
SW-620 colon = test system: SW-620 colon

`O=c1cc(N2CCOCC2)oc2c(-c3ccccc3)cccc12` gave a GI50 (KM12 colon) of 14 µM, a TGI (KM12 colon) of 81.7 µM and a GI50 (SF-539 CNS) of 10.1 µM. The TGI (SF-539 CNS) was 37 µM, the GI50 (HOP-62 NSCLC) was 5.17 µM and the TGI (HOP-62 NSCLC) was 32.8 µM. For the same compound, the GI50 (CCRF-CEM leukemia) was 4.08 µM, the TGI (CCRF-CEM leukemia) was 16.1 µM and the GI50 (SK-OV-3 ovarian) was 3.64 µM. The TGI (SK-OV-3 ovarian) was 19.7 µM, the GI50 (ACHN renal) was 7.85 µM and the TGI (ACHN renal) was 26.8 µM. It also gave a GI50 (SN12C renal) of 8.03 µM, a TGI (SN12C renal) of 97.5 µM and a GI50 (HOP-92 NSCLC) of 4.79 µM. The TGI (HOP-92 NSCLC) was 43.2 µM, the GI50 (NCI-H460 NSCLC) was 5.91 µM and the TGI (NCI-H460 NSCLC) was 66.3 µM. It also gave a GI50 (SF-268 CNS) of 5.91 µM, a TGI (SF-268 CNS) of 28.1 µM and a GI50 (MOLT-4 leukemia) of 3.86 µM. The TGI (MOLT-4 leukemia) was 15.2 µM, the GI50 (M14 melanoma) was 4.81 µM and the TGI (M14 melanoma) was 29 µM. The GI50 (MDA-MB-468 breast) was 2.24 µM, the TGI (MDA-MB-468 breast) was 7.78 µM and the GI50 (TK-10 renal) was 2.79 µM. It also gave a TGI (TK-10 renal) of 15.4 µM, a GI50 (PC-3 prostate) of 3.18 µM and a TGI (PC-3 prostate) of 18.3 µM. For the same compound, the GI50 (NCI/ADR-RES ovarian) was 5.08 µM, the TGI (NCI/ADR-RES ovarian) was 21.8 µM and the GI50 (UACC-62 melanoma) was 8.87 µM. The TGI (UACC-62 melanoma) was 23.3 µM, the GI50 (SNB-75 CNS) was 1.27 µM and the TGI (SNB-75 CNS) was 12.2 µM. For the same compound, the GI50 (HCT-15 colon) was 6.35 µM, the TGI (HCT-15 colon) was 90.2 µM and the GI50 (UACC-257 melanoma) was 16.9 µM. For the same compound, the TGI (UACC-257 melanoma) was 51.3 µM, the GI50 (MDA-MB-435 melanoma) was 10.3 µM and the TGI (MDA-MB-435 melanoma) was 32.1 µM. For the same compound, the GI50 (HT29 colon) was 6.69 µM, the TGI (HT29 colon) was 28.7 µM and the GI50 (A549 NSCLC) was 5.87 µM. It also gave a TGI (A549 NSCLC) of 27.9 µM, a GI50 (SK-MEL-2 melanoma) of 20.1 µM and a TGI (SK-MEL-2 melanoma) of 38.9 µM. It also gave a GI50 (NCI-H23 lung) of 8.85 µM, a TGI (NCI-H23 lung) of 32.4 µM and a GI50 (HCC-2998 colon) of 12.3 µM. The TGI (HCC-2998 colon) was 33 µM, the GI50 (OVCAR-8 ovarian) was 4.9 µM and the TGI (OVCAR-8 ovarian) was 32.1 µM. The GI50 (SW-620 colon) was 18.9 µM and the TGI (SW-620 colon) was > 100 µM.
